Measured values as given in PubChem BioAssay AID248 (DTP/NCI, 2004).
Toxic doses and inconclusive results are not listed. No stated cut-off is given here; in the data, active means T/C of 150% or more; inactive means T/C below 125%.

Tested on: L1210 leukemia ip in BDF1 mice, survival T/C
Experiment: NCI In Vivo Anticancer Drug Screen. Data for tumor model L1210 Leukemia (intraperitoneal) in B6D2F1 (BDF1) mice
Settings: endpoint: mean survival time, higher = longer survival
Method in brief: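 Transplantable tumor model; survival measured in treated vs vehicle control mice. Value = treated/control.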

[1] = dose: 100.0 mg/kg/injection, schedule: Q01DX009 (ip), vehicle: saline with Tween-80
[2] = dose: 100.0 mg/kg/injection, schedule: Q04DX002 (ip), vehicle: Klucel (hydroxypropylcellulose) (HPC)
[3] = dose: 200.0 mg/kg/injection, schedule: Q04DX002 (ip), vehicle: Klucel (hydroxypropylcellulose) (HPC)
[4] = dose: 400.0 mg/kg/injection, schedule: Q04DX002 (ip), vehicle: Klucel (hydroxypropylcellulose) (HPC)
[5] = dose: 100.0 mg/kg/injection, schedule: Q01DX001 (ip), vehicle: carboxymethylcellulose (CMC)
[6] = dose: 200.0 mg/kg/injection, schedule: Q01DX001 (ip), vehicle: carboxymethylcellulose (CMC)
[7] = dose: 400.0 mg/kg/injection, schedule: Q01DX001 (ip), vehicle: carboxymethylcellulose (CMC)
[8] = dose: 100.0 mg/kg/injection, schedule: Q01DX009 (ip), vehicle: Klucel (hydroxypropylcellulose) (HPC)
[9] = dose: 100.0 mg/kg/injection, schedule: Q04DX003 (ip), vehicle: Klucel (hydroxypropylcellulose) (HPC)
[10] = dose: 200.0 mg/kg/injection, schedule: Q01DX009 (ip), vehicle: Klucel (hydroxypropylcellulose) (HPC)
[11] = dose: 200.0 mg/kg/injection, schedule: Q04DX003 (ip), vehicle: Klucel (hydroxypropylcellulose) (HPC)
[12] = dose: 100.0 mg/kg/injection, schedule: Q04DX003 (ip), vehicle: saline
[13] = dose: 200.0 mg/kg/injection, schedule: Q04DX003 (ip), vehicle: saline
[14] = dose: 400.0 mg/kg/injection, schedule: Q04DX003 (ip), vehicle: saline
[15] = dose: 400.0 mg/kg/injection, schedule: Q01DX009 (ip), vehicle: Klucel (hydroxypropylcellulose) (HPC)
[16] = dose: 400.0 mg/kg/injection, schedule: Q04DX003 (ip), vehicle: Klucel (hydroxypropylcellulose) (HPC)
[17] = dose: 100.0 mg/kg/injection, schedule: Q01DX001 (ip), vehicle: saline
[18] = dose: 200.0 mg/kg/injection, schedule: Q01DX001 (ip), vehicle: saline
[19] = dose: 100.0 mg/kg/injection, schedule: Q04DX003 (ip), vehicle: saline with Tween-80
[20] = dose: 200.0 mg/kg/injection, schedule: Q04DX003 (ip), vehicle: saline with Tween-80
[21] = dose: 400.0 mg/kg/injection, schedule: Q04DX003 (ip), vehicle: saline with Tween-80
[22] = dose: 100.0 mg/kg/injection, schedule: Q04DX003 (ip), vehicle: gum acacia
[23] = dose: 200.0 mg/kg/injection, schedule: Q04DX003 (ip), vehicle: gum acacia
[24] = dose: 100.0 mg/kg/injection, schedule: Q01DX001 (ip), vehicle: Klucel (hydroxypropylcellulose) (HPC)
[25] = dose: 200.0 mg/kg/injection, schedule: Q01DX001 (ip), vehicle: Klucel (hydroxypropylcellulose) (HPC)

Measured: T/C

CC(=O)OC1/C=C/C(C)=C/CC(O)/C=C/C(C)=C/C(NC(=O)C(C)=O)C2(C)C(=O)OC(C1)C(C)C2=O (stereo not drawn)
inactive: dose: 25.0 mg/kg/injection, schedule: Q01DX001 (ip), vehicle: saline with Tween-80 102 % of control | dose: 25.0 mg/kg/injection, schedule: Q01DX009 (ip), vehicle: saline with Tween-80 101 % of control | dose: 50.0 mg/kg/injection, schedule: Q01DX001 (ip), vehicle: saline with Tween-80 94 % of control | dose: 50.0 mg/kg/injection, schedule: Q01DX009 (ip), vehicle: saline with Tween-80 104 % of control | dose: 100.0 mg/kg/injection, schedule: Q01DX001 (ip), vehicle: saline with Tween-80 97 % of control | [1] 103 % of control

C=C(C)C1CCC2(CO)CCC3(C)C(CCC4C5(C)CCC(OC6CCCCO6)C(C)(C)C5CCC43C)C12 (stereo not drawn)
inactive: dose: 25.0 mg/kg/injection, schedule: Q04DX002 (ip), vehicle: saline with Tween-80 96 % of control | dose: 50.0 mg/kg/injection, schedule: Q04DX002 (ip), vehicle: saline with Tween-80 93 % of control

COc1cc2c(cc1O)CCN(C)C2Cc1ccc(OC)c(OC)c1 (stereo not drawn)
inactive: dose: 75.0 mg/kg/injection, schedule: Q01DX001 (ip), vehicle: carboxymethylcellulose (CMC) 95 % of control | dose: 150.0 mg/kg/injection, schedule: Q01DX001 (ip), vehicle: carboxymethylcellulose (CMC) 94 % of control

CCCCCCCCCC(=O)N/N=C/c1ccccc1Cl
inactive: dose: 12.5 mg/kg/injection, schedule: Q01DX009 (ip), vehicle: Klucel (hydroxypropylcellulose) (HPC) 112 % of control | dose: 25.0 mg/kg/injection, schedule: Q01DX009 (ip), vehicle: Klucel (hydroxypropylcellulose) (HPC) 113 % of control | dose: 50.0 mg/kg/injection, schedule: Q01DX009 (ip), vehicle: Klucel (hydroxypropylcellulose) (HPC) 104 % of control

COC(=O)C1(C)CCCC2(C)C1CCC13CCC(C)(CCC21)C3O (stereo not drawn)
inactive: [2] 103 % of control | [3] 92 % of control | [4] 92 % of control

CCSCCC1(CCC(C)C)C(=O)NC(=Nc2ccccc2)NC1=O (stereo not drawn)
inactive: [5] 90 % of control | [6] 88 % of control | [7] 96 % of control

Nc1ccc(C(=O)NCC(=O)O)cc1
inactive: [2] 93 % of control | [3] 104 % of control | [4] 100 % of control

O=C(/C=C/c1ccccc1)NN1CCCCC1
inactive: [8] 94 % of control | [9] 100 % of control | [10] 110 % of control | [11] 98 % of control

COc1cccc([Si](C)(C)[Si](C)C)c1
inactive: [12] 98 % of control | [13] 110 % of control | [14] 96 % of control

O=[N+]([O-])c1ccc(O)c(C2CCCCC2)c1
inactive: dose: 100.0 mg/kg/injection, schedule: Q01DX009 (ip), vehicle: gum acacia 92 % of control | dose: 200.0 mg/kg/injection, schedule: Q01DX009 (ip), vehicle: gum acacia 87 % of control | dose: 400.0 mg/kg/injection, schedule: Q01DX009 (ip), vehicle: gum acacia 86 % of control

CCC(Cl)COP(=O)(OCC(Cl)CC)C(OP(=S)(OCC(Cl)CC)OCC(Cl)CC)C(C)C (stereo not drawn)
inactive: dose: 50.0 mg/kg/injection, schedule: Q04DX002 (sc), vehicle: olive oil, sesame oil, peanut oil 104 % of control | dose: 100.0 mg/kg/injection, schedule: Q04DX002 (sc), vehicle: olive oil, sesame oil, peanut oil 118 % of control | dose: 200.0 mg/kg/injection, schedule: Q04DX002 (sc), vehicle: olive oil, sesame oil, peanut oil 110 % of control

C1CN2CCOC2O1
inactive: dose: 100.0 mg/kg/injection, schedule: Q01DX009 (ip), vehicle: saline 101 % of control | dose: 200.0 mg/kg/injection, schedule: Q01DX009 (ip), vehicle: saline 108 % of control | dose: 400.0 mg/kg/injection, schedule: Q01DX009 (ip), vehicle: saline 100 % of control

CC(C)=C(Cl)c1c(C)cc(C)c(CC(N)=O)c1C
inactive: [8] 98 % of control | [9] 93 % of control | [10] 105 % of control | [11] 98 % of control | [15] 96 % of control | [16] 98 % of control

O=S(=O)(c1ccc(NC(=S)Oc2ccccc2)cc1)c1ccc(NC(=S)Oc2ccccc2)cc1
inactive: [17] 104 % of control | [18] 104 % of control

CC(C)(C)N(Cc1ccccc1)Cc1ccccc1
inactive: [19] 96 % of control | [20] 98 % of control | [21] 96 % of control

COC(=O)C1OC1c1ccc(OC)c(OC)c1 (stereo not drawn)
inactive: [5] 95 % of control | [6] 97 % of control | [7] 101 % of control

CC(C)C(Br)C(=O)NCC(=O)NCC(=O)O (stereo not drawn)
inactive: [1] 93 % of control | dose: 200.0 mg/kg/injection, schedule: Q01DX009 (ip), vehicle: saline with Tween-80 94 % of control | dose: 400.0 mg/kg/injection, schedule: Q01DX009 (ip), vehicle: saline with Tween-80 92 % of control

C=NNc1nc2ccccc2s1
inactive: [22] 96 % of control | [23] 88 % of control

C1CCC(C2CCC(C3CCCCC3)CC2)CC1 (stereo not drawn)
inactive: [17] 90 % of control | [18] 90 % of control

Cc1ccc(C)c(NS(=O)(=O)c2ccc(Cl)cc2)c1
inactive: [8] 102 % of control | [9] 107 % of control | [10] 98 % of control | [11] 113 % of control | [15] 98 % of control | [16] 113 % of control

CN1CCCC(OC(=O)N(C)C)C1 (stereo not drawn)
inactive: [12] 98 % of control | [13] 98 % of control | [14] 98 % of control

O=C(NCCCCCCCCCCNC(=O)Nc1cccc(C2=NCCN2)c1)Nc1cccc(C2=NCCN2)c1
inactive: dose: 10.0 mg/kg/injection, schedule: Q01DX Z (ip), vehicle: water 106 % of control | dose: 20.0 mg/kg/injection, schedule: Q01DX Z (ip), vehicle: water 90 % of control

C=CC[As](=O)(O)O
inactive: dose: 25.0 mg/kg/injection, schedule: Q04DX003 (ip), vehicle: saline with Tween-80 98 % of control | dose: 50.0 mg/kg/injection, schedule: Q04DX003 (ip), vehicle: saline with Tween-80 104 % of control | [19] 92 % of control

O=C1C(c2ccccc2)=C(c2ccccc2)C(c2ccccc2)C1c1ccccc1 (stereo not drawn)
inactive: dose: 100.0 mg/kg/injection, schedule: Q04DX002 (ip), vehicle: gum acacia 100 % of control | dose: 200.0 mg/kg/injection, schedule: Q04DX002 (ip), vehicle: gum acacia 87 % of control | dose: 400.0 mg/kg/injection, schedule: Q04DX002 (ip), vehicle: gum acacia 90 % of control

NC(=O)C(Br)c1ccccc1 (stereo not drawn)
inactive: [9] 101 % of control | [11] 98 % of control

CC(=O)Oc1cc(NC(=O)c2ccccc2)ccc1NC(=O)c1ccccc1
inactive: [24] 93 % of control | [8] 89 % of control | [25] 92 % of control | [10] 90 % of control | dose: 400.0 mg/kg/injection, schedule: Q01DX001 (ip), vehicle: Klucel (hydroxypropylcellulose) (HPC) 104 % of control | [15] 100 % of control

c1cc2c(cc1C1=NNC(c3ccc4c(c3)OCO4)=NN1)OCO2
inactive: [19] 104 % of control | [20] 98 % of control | [21] 96 % of control

O=CC1c2ccccc2C(C=O)c2c1ccc1ccccc21 (stereo not drawn)
inactive: dose: 50.0 mg/kg/injection, schedule: Q01DX001 (ip), vehicle: Klucel (hydroxypropylcellulose) (HPC) 93 % of control | [24] 91 % of control | [25] 100 % of control

CCCC(=O)NNC(=O)CCC
inactive: [22] 106 % of control | [23] 107 % of control | dose: 400.0 mg/kg/injection, schedule: Q04DX003 (ip), vehicle: gum acacia 120 % of control
